The target in experiment [1] is T1, LXRα (Homo sapiens, UniProt Q13133).
T1 construct: gene NR1H3
T1 sequence (Q13133 209-447 limits assumed): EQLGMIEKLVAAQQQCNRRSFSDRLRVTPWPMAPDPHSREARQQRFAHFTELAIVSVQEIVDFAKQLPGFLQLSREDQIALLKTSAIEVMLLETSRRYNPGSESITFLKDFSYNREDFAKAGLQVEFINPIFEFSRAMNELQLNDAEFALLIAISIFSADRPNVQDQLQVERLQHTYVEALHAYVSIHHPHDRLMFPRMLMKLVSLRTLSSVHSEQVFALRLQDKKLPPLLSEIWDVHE
In words: LanthaScreen TR-FRET coactivator recruitment, purified LBD (EC80 measured in this assay). The format is binding. A general note: Time-resolved FRET reads energy transfer from a long-lived donor to a nearby acceptor.

Experiment [2] has as its target T1, LXRα. In words: LanthaScreen TR-FRET coactivator recruitment, agonist and antagonist modes, purified LBD; supported by GAL4-LBD reporter. Type of experiment: biochemical.
The target of another experiment is T2, PPARγ (Homo sapiens, UniProt P37231).
T2 construct: gene PPARG; GAL4(1–147)-PPARγ LBD fusion
T2 sequence (P37231 231-505 limits assumed): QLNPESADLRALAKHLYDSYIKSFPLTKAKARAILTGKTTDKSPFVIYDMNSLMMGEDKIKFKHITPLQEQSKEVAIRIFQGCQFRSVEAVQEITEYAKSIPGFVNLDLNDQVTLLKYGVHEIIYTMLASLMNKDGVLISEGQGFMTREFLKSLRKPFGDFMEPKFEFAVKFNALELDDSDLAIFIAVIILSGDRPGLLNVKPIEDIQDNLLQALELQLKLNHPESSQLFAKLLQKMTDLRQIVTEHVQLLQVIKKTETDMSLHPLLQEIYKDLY
In words: GAL4-PPARγ LBD luciferase reporter in HG5LN (HeLa) cells. Conditions: read-out: % activation at 80 μM. The format is cell-based. For orientation: In a reporter assay the amount or activity of a reporter protein is the signal.

Experiment [3] has as its target recombinant LXRα ligand-binding domain, GST-tagged. The experiment can be described thus: FRET or BRET; LanthaScreen TR-FRET coactivator assay, cell-free, antagonist mode: GST-LXRα LBD, fluorescein Trap220 peptide, TO901317 at its EC80 in all wells (250 nM by methods and legend, 1 µM by the results text), increasing naringenin.
Experiment [4] has the same target. In words: FRET or BRET; LanthaScreen TR-FRET coactivator assay, cell-free, agonist mode: GST-LXRα LBD labelled by terbium anti-GST antibody, fluorescein Trap220 peptide, increasing naringenin; percent activation compared to maximal activation of positive control (TO901317). A general note: In BRET a luciferase serves as donor, and the signal depends on an acceptor being close.

Regarding `O=S(=O)(c1ccccc1)N(CC(F)(F)F)c1ccc(C(O)(C(F)(F)F)C(F)(F)F)cc1` [TO901317], the “LanthaScreen TR-FRET coactivator recruitment, purified LBD (EC80 measured in thi)” value at LXRα [1] is 250 nM.

`O=C1C[C@@H](c2ccc(O)cc2)Oc2cc(O)cc(O)c21` [naringenin]: at LXRα [2], the “% activation” value is on record as 38.0±2.8 % activation. Besides, the Emax at 80 µM at PPARγ was 57 ± 0.3%.

Regarding “fluorescein-labeled Trap 220/Drip-2 co-activator peptide”, in experiment [3], the percent inhibition of binding by 133 µM naringenin in the presence of 1 µM TO901317 stood at 11.6% and the percent inhibition of the TR-FRET signal by 133 µM naringenin with 250 nM TO901317 is 15%. For the same compound, the percent activation of TR-FRET signal with naringenin, relative to TO901317 in experiment [4] was 38%.
